Data on three molecules can be found in paper PMC6125430, “Structural Analysis of Redox-sensing Transcriptional Repressor Rex from Thermotoga maritima” (Scientific Reports, 2018).

Series [1] addresses T1, TmRex (Thermotoga maritima, UniProt Q9WY16).
T1 construct: gene rex1; full-length gene (pET28b NdeI/XhoI), N-terminal His6 tag (tag removal told only for SeMet protein), E. coli BL21(DE3) Star pLysS; homodimer; primers encode N-terminal MAEKIPK
Put plainly: X-ray crystallography of the complex. Format: binding. The settings on record: 1:1 per C-terminal domain.

Series [2] deals with the molecule itself. The experiment in a line: crystal structure; apo TmRex, native protein, 2.0 Å; sitting-drop vapour diffusion at 296 K, 200 mM potassium chloride, 20% (w/v) PEG 3,350; four subunits (two homodimers) in the asymmetric unit.

`NC(=O)C1=CN([C@@H]2O[C@H](COP(=O)(O)OP(=O)(O)OC[C@H]3O[C@@H](n4cnc5c(N)ncnc54)[C@H](O)[C@@H]3O)[C@@H](O)[C@H]2O)C=CC1` [NADH]: the “X-ray crystallography of the complex” value in series [1] (co-crystallization with 1 mM NADH, 2.45 A, closed form) is “NADH-bound TmRex crystals were grown by co-crystallization”.
As for `NC(=O)c1ccc[n+]([C@@H]2O[C@H](COP(=O)(O)OP(=O)(O)OC[C@H]3O[C@@H](n4cnc5c(N)ncnc54)[C@H](O)[C@@H]3O)[C@@H](O)[C@H]2O)c1` [NAD^+], in series [1] (apo crystals soaked with 1 mM NAD+ for 10 h, 2.2 A, open form), the “X-ray crystallography of the complex” value is “The structure of NAD^+-bound TmRex was refined with crystallographic Rwork and Rfree values”.

B1: Redox-sensing transcriptional repressor Rex from Thermotoga maritima (natural protein, UniProt Q9WY16 1-208, looked up)
chain: MAEKIPKPVSKRLVSYYMCLERLLDEGVEVVSSEELARRLDLKASQIRKDLSYFGEFGKRGVGYNVEHLYDAIGEILGVKKEWKLVVVGAGNIGRAVANYTVMKEKGFRIIGIFDSDPSKIGKEAAPGLTVSDVSELEKFVEEHGVEIGVIAVPAEHAQEIAERLEKAGIKGILNFAPVKIKVSVPVENIDITASLRVLTFEIVRRNS
notes: Rex (TM0169) of Thermotoga maritima, rex gene amplified from genomic DNA with primers from the ATG start codon to the stop codon; residues 1-208 (N-terminal domain 1-77, linker loop 78-83, C-terminal domain 84-208); Cloned into pET28b(+) with NdeI and XhoI; for the native protein in the deposited structures no removal is told; also called TmRex; TM0169; source: E. coli BL21 (DE3) star pLysS, …
Consider B1, for which, in series [2], the binding result was “binds”.
